Read-outs that look alike come from different tables or passages of the source.
How the values were obtained:
[1] = tested on: TNFα production in LPS-stimulated human monocytes; assay: Cot Monocyte TNFα Cell Based Assay; conditions: Homo sapiens, Monocyte, read-out: EC50 TNF
In short: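 Cells at 5,000/well were pretreated with compound for 1 h at 37 °C (0.5% DMSO final), then stimulated with 50 pg/ml LPS for 4 h at 37 °C. Supernatant TNFα was measured by two-antibody TR-FRET after overnight room-temperature incubation; values are percent of control between unstimulated and stimulated wells.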

[2] = target: T1, human Cot catalytic domain (30-397 amino acids) (Homo sapiens, UniProt P41279); assay: High Throughput Cot Biochemical Assay (KinEASE TR-FRET); conditions: Cot KinEASE TR-FRET, 400 μM ATP; read-out: IC50 HTRF
T1 construct: Purified recombinant human Cot catalytic domain (30-397 amino acids) was purchased from Cama Biosciences; purchased Cama Biosciences (so in the source)
In short: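 Reaction of 5 nM recombinant human Cot catalytic domain (aa 30-397) with 1 μM STK3 peptide (XL665-labeled) and 400 μM ATP in 10 mM MOPS pH 7.0, 10 mM MgOAc, 1 mM DTT, 0.5 mg/mL BSA, 0.1% DMSO. Phosphopeptide detected by TR-FRET with europium anti-phospho antibody.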

[3] = LPS-stimulated human monocytes, TNFα TR-FRET

T1 sequence (P41279 30-397): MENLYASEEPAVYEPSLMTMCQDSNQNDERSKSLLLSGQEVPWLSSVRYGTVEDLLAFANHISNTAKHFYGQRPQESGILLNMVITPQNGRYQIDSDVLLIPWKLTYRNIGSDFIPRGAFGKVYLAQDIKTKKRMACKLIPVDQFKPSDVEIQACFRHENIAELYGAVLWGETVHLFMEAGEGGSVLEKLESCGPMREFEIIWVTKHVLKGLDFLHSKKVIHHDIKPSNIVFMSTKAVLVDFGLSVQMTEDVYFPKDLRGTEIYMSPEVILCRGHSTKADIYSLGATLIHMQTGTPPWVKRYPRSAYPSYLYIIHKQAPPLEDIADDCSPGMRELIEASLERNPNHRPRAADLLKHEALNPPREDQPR

Row | EC50 [1, 3] | IC50 [2] | SMILES | EC50 [1]
1 | 0.076 µM | 0.005 µM | CC(C)(C)CNc1c(C#N)cnc2c(Cl)cc(N[C@@H](c3ccc(F)cc3)c3cn(C4(C(N)=O)CCC4)nn3)cc12 [Example 992, (S)-1-(4-(((8-chloro-3-cyano-4-(neopentylamino)quinolin-6-yl)amino)(4-fluorophenyl)methyl)-1H-1,2,3-triazol-1-yl) cyclobutane-1-carboxamide] | 
2 | 0.103 µM | 0.033 µM | [2H][C@](Nc1cc(C#N)c2ncc(C#N)c(NCC(C)(C)C)c2c1)(c1ccc(F)cc1)c1cn(-c2cccnc2)nn1 [Example 994, (S)-6-(((4-fluorophenyl)(1-(pyridin-3-yl)-1H-1,2,3-triazol-4-yl)methyl-d)amino)-4-(neopentylamino) quinoline-3,8-dicarbonitrile] | 
3 | 0.049 µM | 0.003 µM | Cc1c(C#N)cccc1[C@H](Nc1cc(C#N)c2ncc(C#N)c(NCC(C)(C)C)c2c1)c1cn(C2(C(F)(F)F)CC2)nn1 [Example 995, (S)-6-(((3-cyano-2-methylphenyl)(1-(1-(trifluoromethyl)cyclopropyl)-1H-1,2,3-triazol-4-yl)methyl)amino)-4-(neopentylamino)quinoline-3,8-dicarbonitrile] | 
4 | 0.109 µM | 0.006 µM | CC(C)(C)CNc1c(C#N)cnc2c(Cl)cc(N[C@@H](c3ccc(F)cc3)c3cn(C4(C(N)=O)CC4)nn3)cc12 [Example 996, (S)-1-(4-(((8-chloro-3-cyano-4-(neopentylamino)quinolin-6-yl)amino)(4-fluorophenyl)methyl)-1H-1,2,3-triazol-1-yl)cyclopropane-1-carboxamide] | 
5 | 0.061 µM | 0.048 µM | CC(C)(C)CNc1c(C#N)cnc2c(Cl)cc(N[C@@H](c3ccc(F)cc3)c3cn(C4(c5cccnc5)CC4)nn3)cc12 [Example 997, (S)-8-chloro-6-(((4-fluorophenyl)(1-(1-(pyridin-3-yl)cyclopropyl)-1H-1,2,3-triazol-4-yl)methyl)amino)-4-(neopentylamino) quinoline-3-carbonitrile] | 
6 | 0.25 µM | 0.053 µM | CC(C)(C)CNc1c(C#N)cnc2c(Cl)cc(N[C@@H](c3ccc(F)cc3)c3cn(C4(C(F)(F)F)CCC4)nn3)cc12 [Example 998, (S)-8-chloro-6-(((4-fluorophenyl)(1-(1-(trifluoromethyl)cyclobutyl)-1H-1,2,3-triazol-4-yl)methyl)amino)-4-(neopentylamino)quinoline-3-carbonitrile] | 
7 | 0.306 µM | 0.063 µM | CC(C)(C)CNc1c(C#N)cnc2c(F)cc(N[C@H](c3cn(C4(C(N)=O)CC4)nn3)c3ccccc3Cl)cc12 [Example 999, (S)-1-(4-((2-chlorophenyl)((3-cyano-8-fluoro-4-(neopentylamino)quinolin-6-yl)amino)methyl)-1H-1,2,3-triazol-1-yl)cyclopropane-1-carboxamide] | 
8 | 0.177 µM | 0.058 µM | CC(C)(C)CNc1c(C#N)cnc2c(F)cc(N[C@H](c3cn(C4(C#N)CC4)nn3)c3ccccc3Cl)cc12 [Example 1000, (S)-6-(((2-chlorophenyl)(1-(1-cyanocyclopropyl)-1H-1,2,3-triazol-4-yl)methyl)amino)-8-fluoro-4-(neopentylamino)quinoline-3-carbonitrile] | 
9 | 0.344 µM | 0.022 µM | CC(C)(C)CNc1c(C#N)cnc2c(F)cc(N[C@H](c3cn(C(F)(F)C(N)=O)nn3)c3ccccc3Cl)cc12 [Example 1001, (S)-2-(4-((2-chlorophenyl)((3-cyano-8-fluoro-4-(neopentylamino)quinolin-6-yl)amino)methyl)-1H-1,2,3-triazol-1-yl)-2,2-difluoroacetamide] | 
10 | 0.202 µM | 0.014 µM | CC(C)(C)CNc1c(C#N)cnc2c(Cl)cc(N[C@@H](c3ccc(F)cc3)c3cn(CC(F)F)nn3)cc12 [Example 1002, (S)-8-chloro-6-(((1-(2,2-difluoroethyl)-1H-1,2,3-triazol-4-yl) (4-fluorophenyl)methyl)amino)-4-(neopentylamino) quinoline-3-carbonitrile] | 
11 | 0.227 µM | 0.019 µM | CC(C)(C)CNc1c(C#N)cnc2c(Cl)cc(N[C@H](c3cn(C4CC4)nn3)c3cccc4ccccc34)cc12 [Example 1003, (S)-8-chloro-6-(((1-cyclopropyl-1H-1,2,3-triazol-4-yl)(naphthalen-1-yl)methyl)amino)-4-(neopentylamino)quinoline-3-carbonitrile] | 
12 | ≥ 1 µM | 0.033 µM | [2H][C@@](Nc1cc(C#N)c2ncc(C#N)c(NCC(C)(C)C)c2c1)(c1cn(-c2cccnc2)nn1)c1ccccc1Cl [Example 1004, (S)-6-(((2-chlorophenyl)(1-(pyridin-3-yl)-1H-1,2,3-triazol-4-yl)methyl-d)amino)-4-(neopentylamino)quinoline-3,8-dicarbonitrile] | 
13 | ≥ 1 µM | ≥ 10 µM | [2H][C@](Nc1cc(C#N)c2ncc(C#N)c(NCC(C)(C)C)c2c1)(c1cccc(C#N)c1)c1cn(-c2cccnc2)nn1 [Example 1005, (S)-6-(((3-cyanophenyl)(1-(pyridin-3-yl)-1H-1,2,3-triazol-4-yl)methyl-d)amino)-4-(neopentylamino) quinoline-3,8-dicarbonitrile] | 
14 | 0.072 µM | 0.009 µM | [2H][C@](Nc1cc(C#N)c2ncc(C#N)c(NCC(C)(C)C)c2c1)(c1ccc(F)cc1)c1cn(C2(CF)CC2)nn1 [Example 1006, (S)-6-(((1-(1-(fluoromethyl)cyclopropyl)-1H-1,2,3-triazol-4-yl)(4-fluorophenyl)methyl-d)amino)-4-(neopentylamino)quinoline-3,8-dicarbonitrile] | 
15 | 0.066 µM | 0.002 µM | [2H][C@](Nc1cc(C#N)c2ncc(C#N)c(NCC(C)(C)C)c2c1)(c1cccc(C#N)c1)c1cn(C2(CF)CC2)nn1 [Example 1007, (S)-6-(((3-cyanophenyl)(1-(1-(fluoromethyl)cyclopropyl)-1H-1,2,3-triazol-4-yl)methyl-d)amino)-4-(neopentylamino)quinoline-3,8-dicarbonitrile] | 
16 | 0.123 µM | 0.001 µM | Cc1c(C#N)cccc1[C@H](Nc1cc(Cl)c2ncc(C#N)c(NCC(C)(C)C)c2c1)c1cn(C2(C(N)=O)CC2)nn1 [Example 1008, (S)-1-(4-(((8-chloro-3-cyano-4-(neopentylamino)quinolin-6-yl)amino)(3-cyano-2-methylphenyl)methyl)-1H-1,2,3-triazol-1-yl)cyclopropane-1-carboxamide] | 
17 | 0.067 µM | 0.001 µM | Cc1c(C#N)cccc1[C@H](Nc1cc(Cl)c2ncc(C#N)c(NCC(C)(C)C)c2c1)c1cn(C2(C(N)=O)CCC2)nn1 [Example 1009, (S)-1-(4-(((8-chloro-3-cyano-4-(neopentylamino)quinolin-6-yl)amino)(3-cyano-2-methylphenyl)methyl)-1H-1,2,3-triazol-1-yl)cyclobutane-1-carboxamide] | 
18 | 0.022 µM | 0.003 µM | CC(C)(C)CNc1c(C#N)cnc2c(C#N)cc(N[C@H](c3cn(C4(c5ccncc5)CC4)nn3)c3ccccc3Cl)cc12 [Example 1011, (S)-6-(((2-chlorophenyl)(1-(1-(pyridin-4-yl)cyclopropyl)-1H-1,2,3-triazol-4-yl)methyl)amino)-4-(neopentylamino) quinoline-3,8-dicarbonitrile] | 
19 | 0.036 µM | 0.003 µM | Cc1c(C#N)cccc1[C@H](Nc1cc(Cl)c2ncc(C#N)c(NCC(C)(C)C)c2c1)c1cn(C2(C(F)F)CC2)nn1 [Example 1012, (S)-8-chloro-6-(((3-cyano-2-methylphenyl)(1-(1-(difluoromethyl)cyclopropyl)-1H-1,2,3-triazol-4-yl)methyl)amino)-4-(neopentylamino)quinoline-3-carbonitrile] | 
20 | 0.023 µM | 0.002 µM | Cc1c(C#N)cccc1[C@H](Nc1cc(C#N)c2ncc(C#N)c(NCC(C)(C)C)c2c1)c1cn(C2(C(F)F)CC2)nn1 [Example 1013, (S)-6-(((3-cyano-2-methylphenyl)(1-(1-(difluoromethyl)cyclopropyl)-1H-1,2,3-triazol-4-yl)methyl)amino)-4-(neopentylamino)quinoline-3,8-dicarbonitrile] | 
21 | 0.106 µM | 0.003 µM | CC(C)(C)CNc1c(C#N)cnc2c(C#N)cc(N[C@H](c3cn(C4(C(N)=O)CCC4)nn3)c3ccccc3Cl)cc12 [Example 1014, (S)-1-(4-((2-chlorophenyl) ((3,8-dicyano-4-(neopentylamino)quinolin-6-yl)amino)methyl)-1H-1,2,3-triazol-1-yl)cyclobutane-1-carboxamide] | 

Row | SMILES | EC50 [1, 3] | IC50 [2] | EC50 [1]
22 | [2H][C@](Nc1cc(C#N)c2ncc(C#N)c(NCC(C)(C)C)c2c1)(c1ccc(F)cc1)c1cn(CCC2CN2C(C)(C)C)nn1 (stereo partly drawn) [Example 993, 6-(((1S)-(1-(2-(1-(tert-butyl)aziridin-2-yl)ethyl)-1H-1,2,3-triazol-4-yl)(4-fluorophenyl)methyl-d)amino)-4-(neopentylamino) quinoline-3,8-dicarbonitrile] |  | 0.032 µM | 3.61 µM
23 | [2H][C@](Nc1cc(Cl)c2ncc(C#N)c(NCC(C)(C)C)c2c1)(c1ccc(Cl)cc1)c1cn(C23CCN(CC2)CC3)nn1 [Example 1010, (S)-8-chloro-6-(((4-chlorophenyl)(1-(quinuclidin-4-yl)-1H-1,2,3-triazol-4-yl)methyl-d)amino)-4-(neopentylamino)quinoline-3-carbonitrile] |  | 0.069 µM | 0.928 µM

Source: patent US10316017B2, “COT modulators and methods of use thereof” (Gilead Sciences, Inc., priority 2015, dated 2019)
